The results in this text go back to article PMC6343074, “New Irreversible α‐L‐Iduronidase Inhibitors and Activity‐Based Probes” (Chemistry (Weinheim an Der Bergstrasse, Germany), 2018).

Test [1] addresses T1, rIDUA (human recombinant α-L-iduronidase, Aldurazyme) (Homo sapiens, UniProt P35475).
T1 construct: gene IDUA; therapeutic recombinant enzyme (Aldurazyme, Genzyme), secreted lysosomal glycoprotein; chymotryptic active-site peptide Asn297-Leu303 with nucleophile Glu299
T1 sequence (P35475 28-653): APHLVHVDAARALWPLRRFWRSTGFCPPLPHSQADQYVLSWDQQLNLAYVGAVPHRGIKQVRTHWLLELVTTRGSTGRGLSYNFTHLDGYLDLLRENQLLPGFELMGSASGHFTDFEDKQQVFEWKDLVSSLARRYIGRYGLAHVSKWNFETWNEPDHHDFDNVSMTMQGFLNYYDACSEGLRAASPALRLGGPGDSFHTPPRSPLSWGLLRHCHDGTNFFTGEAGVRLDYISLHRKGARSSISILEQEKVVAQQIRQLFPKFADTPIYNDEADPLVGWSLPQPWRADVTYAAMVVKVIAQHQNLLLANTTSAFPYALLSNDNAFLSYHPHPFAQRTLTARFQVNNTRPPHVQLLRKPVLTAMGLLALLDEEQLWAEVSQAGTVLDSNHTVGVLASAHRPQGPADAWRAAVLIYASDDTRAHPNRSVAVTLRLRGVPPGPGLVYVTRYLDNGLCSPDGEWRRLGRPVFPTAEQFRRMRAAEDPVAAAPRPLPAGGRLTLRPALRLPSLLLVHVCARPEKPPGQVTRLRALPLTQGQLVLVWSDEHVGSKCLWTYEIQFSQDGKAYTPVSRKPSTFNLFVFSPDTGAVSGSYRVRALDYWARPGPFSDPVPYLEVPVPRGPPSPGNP
Briefly: fluorogenic 4-MU-IdoA activity assay. In kind it is biochemical. Particulars: pH 4.5, 60 min incubation, competition with 4-MU-IdoA; covalent; read-out: apparent IC50.

Test [2] concerns the target T1, rIDUA (human recombinant α-L-iduronidase, Aldurazyme). Briefly: biochemical. Also noted: residual rIDUA activity after 1 h preincubation, fluorogenic 4-MU-alpha-L-IdoA substrate, pH 4.5, apparent IC50. As to the method: Apparent IC50 values of inhibitors and ABPs on recombinant human iduronidase and cell lysates Inhibitors and ABPs were diluted at various concentrations in 12.5 µL assay buffer and incubated with 12.5 µL rIDUA (5.8 ng, or 70 fmol) or fibroblast lysates (50 µg protein), both diluted in assay buffer, at 37°C for 1 h (rIDUA) or 4 h (fibroblasts lysates), at 1% (v/v) DMSO concentration. This was followed by iduronidase activity assay (30 min incubation time) described in the previous section. The detected 4-MU fluorescence at each concentration for each compound were normalized to the fluorescence from the control sample without inhibitor, and data were fitted with [inhibitor] vs response – variable slope (four parameters) function in Graphpad Prism 7.0 software to obtain apparent IC50 values. Iduronidase activity assay using 4-MU-α-L-IdoA as substrate Samples containing enzyme were diluted in assay buffer (150 mM citrate/Na2HPO4, pH 4.5, supplemented with 0.1% (v/v) Triton X-100, 0.15 M NaCl, 33 mM CaCl2, 33 mM MgCl2), and load onto a black flat-bottom 96-well plate (Greiner) in triplicates of 25 µL per well. Negative controls (blank) were prepared by substituting enzyme samples with buffer. For reaction, samples were added with 25 µL of 360 µM 4-MU-α-L-IdoA1 (prepared in assay buffer supplemented with 0.1 % (w/v) bovine serum albumin (BSA)), and incubated at 37°C for 30 min to 4h. […]

Regarding `[N-]=[N+]=NCCCCCCCCN1[C@@H]2[C@@H](C(=O)O)[C@@H](O)[C@H](O)[C@@H](O)[C@@H]21` (stereo partly drawn) [compound 1, inhibitor 1], the IC50 in test [1] was determined as 40.6 ± 17 µM.
As for `OC[C@H]1[C@@H](O)[C@H](O)[C@@H](O)[C@@H]2N[C@H]12` [compound 11, aziridine 11], in test [2], the IC50 was > 100 µM.
Consider `[N-]=[N+]=NCCCCCCCCN1[C@@H]2[C@@H](CO)[C@@H](O)[C@H](O)[C@@H](O)[C@@H]21` (stereo partly drawn) [compound 12, alkyl aziridine 12], for which, in test [1], the IC50 is 12.2 ± 3.24 µM.

The term IC50 denotes the concentration that inhibits the measured activity by half.
